We go through one compound from patent US20230390248A1, “COMPOSITION FOR ENHANCING TUMOR PENETRATION OF ANTICANCER DRUG, COMPRISING LOSARTAN AS ACTIVE INGREDIENT, AND USE THEREOF” (priority 2020, published 2023).

Each structure is given as a SMILES string.

Holding throughout (assay type): in vivo, BALB/c nude mice
One assay relates to collagen. Put plainly: Masson trichrome staining of collagen in gastric cancer tissue. The note with it: gastric cancer tumor tissue; versus control; FIG. 3A. As to the method:
Masson trichrome staining was performed for histological visualization of collagen, an extracellular component, which is considered as a disorder when TRZ travels. Tumor tissues were obtained by sacrificing animals. The obtained tissues were fixed overnight in 4% paraformaldehyde and transferred to OCT compounds (Sakura Finetec, USA). The tissues were sectioned to a thickness of 40 μm. Staining was performed according to the kit protocol (Abcam (www.abcam.com) ab150686).
Bouin's Fluid was applied to each section and cultured overnight at room temperature. The slides were washed with water, cultured in Weigert's iron hematoxylin for 5 minutes, then washed with tap water, and cultured in Biebrich scarlet/acid fuchsin solution for […]. Without washing, the slides were re-cultured with aniline blue for 30 minutes. The slides were then washed with water and cultured in acetic acid for 3-5 minutes.
It was also dehydrated in graded alcohol, washed in xylene, and then mounted to a class slide using a mounting medium. The slides were visualized, and images were filmed with the Olympus BX53 system microscope (Olympus, life science solution, Waltham, Massachusetts (02453)).

Another assay deals with hyaluronan. Put plainly: Hyaluronan staining (alcian blue) in gastric cancer tissue. The note with it: gastric cancer tumor tissue; versus control; FIG. 3B.
Another assay concerns gastric cancer (NCI-N87). Put plainly: Treatment efficacy of combined RIT using losartan and ^64Cu-TRZ. Particulars: compared to the control (PBS); losartan 60 mg/kg s.c. for 25 days; FIG. 5A. As to the method:
To identify gastric cancer (NCI-N87) treatment efficacy of the combined therapy using losartan and trastuzumab, the groups were classified into ^64Cu-TRZ treated group (n=7), losartan-included ^64Cu-TRZ treated group (n=7), losartan solely treated group (n=6), TRZ solely treated group (n=6), and PBS treated group (n=8). […] Losartan was delivered subcutaneously (60 mg/kg for 25 days), and TRZ (150 μg) was injected intravenously once at the start of treatment.

Procedure for hyaluronan: Hyaluronan staining was performed using alcian blue stain kit (Vector laboratories, Burlingame, CA 94010, Alcian Blue (pH 2.5), Stain kit, H-3501). The tissues were sectioned to a thickness of 20 μm. The sections were washed with water to remove excess OCT. Acetic acid was treated to tissue sections for 3 minutes, and then Alcian blue solution was treated at 37° C. for 30 minutes. Excess staining was removed by washing with acetic acid. It was then washed with tap water for 2 minutes and then with distilled water for 1-2 minutes. In addition, the nuclear fast red solution was treated for 5 minutes, and washing was followed with tap water and then with distilled water. The slides were dehydrated in graded alcohol and removed from xylene, and then a cover slip was mounted. The slides were visualized, and images were filmed with Olympus BX53 system microscope (Olympus, life science solution, Waltham, Massachusetts (02453)).

As for `CCCCc1nc(Cl)c(CO)n1Cc1ccc(-c2ccccc2-c2nn[nH]n2)cc1` [losartan], the “collagen (masson trichrome staining)” value with collagen is “reduced collagen”. Besides, the “hyaluronan (alcian blue staining)” value with hyaluronan was “reduced hyaluronan”. For the same compound, the tumor growth response entry with gastric cancer (NCI-N87) is “tumoricidal response”.
